“Also recorded” adds a separate entry of the source.
Assays:
[1] = tested on: rhesus macaques (Macaca mulatta); assay: P300 (P3) ERP in macaque EEG, auditory oddball paradigm, under ketamine, saline and 5 h post-ketamine; type: in vivo
From the text: (§1) In exemplary implementations of the disclosed technology to assess the efficacy of a treatment for a neuropsychiatric disorder, two adult male rhesus macaques (Macaca mulatta), e.g., 6 and 7 years old, were used. All procedures and animal care were approved by the Salk Institute Animal Care and Use Committee and carried out in accordance with the US National Institutes of Health Guide for the Care and Use of Laboratory Animals.
(§2) The exemplary stimuli presentation structure included a passive auditory intensity oddball paradigm to present different intensity tones to subjects sitting in an isolated, dimly lit room during the implementations. For example, the auditory stimuli included 100 ms (e.g., 10 ms rise/fall) pure sinusoidal tones (e.g., 1500 Hz) of either a low or a high intensity. Frequent (standard) and infrequent (deviant) stimuli were presented 80% and 20% of the time, respectively, as depicted in FIG. 4. The inter-stimulus interval was 700 ms. For example, twelve hundred standard and three hundred deviant stimuli were presented in each recording session. For example, both high-deviant (e.g., low-standard) and low-deviant (e.g., high-standard) conditions were used, e.g., to allow comparison of the responses to identical stimuli (e.g., low or high) in different contexts (e.g., standard or deviant).
(§3) For example, EEG scalp recordings were acquired with the Vision Recorder software using a BrainAmpMR system. An exemplary custom-designed 22-channel NHP EEG cap with AgCl electrodes was developed and used for the non-human primate subject data collection (e.g., PCB Ribbon Cable for BrainCap-MR with 5 k resistors; BrainCap MR Box 1.2; sintered ring electrodes with 1.5 mm touchproof safety socket termination and 120 cm heavy-duty leadwire).
(§4) The exemplary EEG data collection technique for the NHP subjects included the following preparation steps. […]
(§5) The exemplary EEG data was analyzed using Analyzer 2.0 software. […]

[2] = tested on: rhesus macaques (Macaca mulatta); assay: Mismatch negativity (MMN) ERP in macaque EEG, auditory oddball paradigm, under ketamine, saline and 5 h post-ketamine; type: in vivo
From the text: as §1, §2, §3, §4, §5

[3] = ketamine, saline, 5 h post-ketamine

## CNC1(c2ccccc2Cl)CCCCC1=O (stereo not drawn) [ketamine]
[1]; 5 h-post ketamine vs. saline F(1,301)=0.06, p=0.803, ketamine vs. 5 h-post ketamine F(1,411)=44.34, p=0.000
  Effect of ketamine on P300 (P3) 5 h after infusion: no longer significant; also recorded: full recovery
[1]; acute subanesthetic ketamine infusion 1 mg/Kg, vs. vehicle saline, F(1,301)=27.73, p=0.000, Cz electrode
  P300 amplitude, ketamine vs. saline: significant reduction
[1]; [3]
  P300 latency differences across conditions: No significant latency differences
[2]; 5 h-post ketamine vs. saline F(1,290)=0.20, p=0.652, ketamine vs. 5 h-post ketamine F(1,403)=7.97, p=0.005
  Effect of ketamine on MMN 5 h after infusion: no longer significant; also recorded: full recovery
[2]; acute subanesthetic ketamine infusion 1 mg/Kg, vs. vehicle saline, F(1,290)=4.47, p=0.035, Cz electrode
  MMN amplitude, ketamine vs. saline: significant reduction
[2]; [3]
  MMN latency differences across conditions: No significant latency differences

Reference: patent US10258291B2, “Systems and methods for evaluation of neuropathologies” (The Regents of the University of California, priority 2012, dated 2019)
